Measurements: US4973578A, “Synthetic peptides derived from the alpha-subunit of human lycoprotein hormones” (Mayo Foundation for Medical Education and Research, priority 1988, dated 1990)
“And” between values parts separate entries of the source, which are not always exact repeats. Equal values may be shown once. “Also recorded” adds a separate entry of the source. Residues, ends and D or L forms follow the SMILES beside them.

Experiments:
[1] = system: TSH mediated cAMP generation in FRTL-5 cells; test: Inhibition of TSH mediated cAMP generation in FRTL-5 cells; assay type: cell-based, rat; details: for percent inhibition of TSH mediated cAMP generation: 200 mU/L bTSH, 2 hrs 37° C.
Method: FRTL-5 cells were maintained in Ham's F-12 medium supplemented with 5% calf serum and a 6 hormone preparation including 10 mU/ml bTSH as described by Ambesi-Impiombato et al., Proc. Natl. Acad. Sci. U.S.A., 77:3455 (1980), the disclosure of which is incorporated herein. For all assays herein described, the cells were plated in 24 well plates and grown for 3 days at 37° C. then maintained for 5-7 days in medium supplemented with 10 ug insulin alone prior to assay.
The bioassay was a modification of those previously described by Bidey et al, J. Endocrinol., 101:269 (1984); and Kasagi et al., ACTA Endocrinol., 115:30 (1987). To duplicate culture wells were added varying concentrations of test materials (see below) in a final volume of 300 ul of NaCl free HBSS with 0.5 mM iso-butyl-methyl-xanthine (IBMX, Sigma, St. Louis). In stimulation assays, only synthetic α-subunit peptides were added to the incubation medium. For inhibition assays, the noted concentrations of synthetic α-subunit peptides were added immediately prior to the addition of 200 mU/L bTSH. The plates were incubated at 37° C. in 5% CO2 for 2 hrs then 100 ul of incubation medium was removed and diluted in 900 ul of 0.05M sodium acetate pH 6.2 and assayed for cAMP content by RIA in accordance with procedures described by Wray and Glinos, Am. J. Physiol., 234 (Cell Phisol. 3):C131(1978)); and Steiner et al., J. Biol. Chem., 247:1106 (1972). […] Basal cAMP levels were determined in the presence of HBSS and IBMX alone. In inhibition assays percent inhibition was calculated as follows: [formula]
FIG. 4 reports data obtained for TSH deprived FRTL-5 cells incubated with a fixed amount of bTSH (200 mU/l) by itself or with various concentrations of synthetic peptides. cAMP content of medium was measured after 2 hrs. incubation at 37° C. Percent inhibition of cAMP generation was calculated as noted above.

[2] = Solubility of peptide in assay buffers; assay type: physicochemical
[3] = target: T1, TSH receptor on human thyroid membranes (Homo sapiens, UniProt P16473); test: TSH radioreceptor assay: inhibition of 125I-bTSH binding to human thyroid membrane preparations; details: for IC50: human thyroid membrane homogenates, ± S.E., read-out: bTSH ED50 (effective dose necessary to inhibit binding of 125I-bTSH by 50%); for inhibition of 125I-bTSH binding, result in words: human thyroid membranes
T1 construct: Thyroid tissue obtained at surgery from patients with Graves' disease was prepared as described by Takahashi et al; from tissue; host or cells: human thyroid tissue from Graves' disease patients, 2000xg membrane fraction
T1 sequence (P16473 21-764): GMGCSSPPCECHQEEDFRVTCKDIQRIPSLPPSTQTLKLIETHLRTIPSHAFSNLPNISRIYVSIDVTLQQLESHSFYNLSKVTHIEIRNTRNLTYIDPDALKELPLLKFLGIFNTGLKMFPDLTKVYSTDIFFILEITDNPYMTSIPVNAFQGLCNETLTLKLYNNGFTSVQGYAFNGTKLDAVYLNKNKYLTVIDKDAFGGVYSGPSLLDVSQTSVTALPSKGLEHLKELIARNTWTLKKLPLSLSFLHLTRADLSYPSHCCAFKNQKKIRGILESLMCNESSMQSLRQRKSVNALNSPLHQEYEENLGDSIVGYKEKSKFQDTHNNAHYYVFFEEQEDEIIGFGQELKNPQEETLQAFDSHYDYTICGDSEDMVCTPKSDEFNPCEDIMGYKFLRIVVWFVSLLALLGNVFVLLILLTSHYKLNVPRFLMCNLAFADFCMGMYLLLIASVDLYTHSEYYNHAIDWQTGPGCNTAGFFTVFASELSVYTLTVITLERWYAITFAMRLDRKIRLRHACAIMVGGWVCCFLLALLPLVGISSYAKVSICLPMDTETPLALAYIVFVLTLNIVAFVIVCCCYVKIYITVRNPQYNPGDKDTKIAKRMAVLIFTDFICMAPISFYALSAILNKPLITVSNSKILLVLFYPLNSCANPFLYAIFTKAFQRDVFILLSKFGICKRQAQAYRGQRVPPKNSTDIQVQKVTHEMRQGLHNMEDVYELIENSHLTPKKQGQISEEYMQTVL
Method: Thyroid tissue obtained at surgery from patients with Graves' disease was prepared as described by Takahashi et al., J. Clin. Endocrinol. Metab. 47:870 (1978), the disclosure of which is incorporated herein. Briefly, the tissue was dissected free of fibrous material, minced with scissors, and homogenized with Polytron homogenizer. The 2000×g fraction was collected by centrifugation, washed and resuspended in 40 mM Tris, 0.1% Bovine Serum Albumin (BSA) pH 7.4 at a concentration of 100 mg equivalents of wet tissue per milliliter. The preparation was stored at -70° C. until used for assay.
Highly purified bovine TSH (30 IU/mg, supplied by Dr. J. G. Pierce, UCLA) was radio-iodinated (Na^125 I, Amersham, Chicago) by a gentle lactoperoxidase procedure described by Takahashi et al., supra, then purified by Sephadex G-100 chromatography.
The membrane assay incubation mixture consisted of […] of the 2000×g membrane fraction, 0.125 ng ^125 I bTSH (approximately 20,000 cpm, 5×10^-12 M), 100 ul of 1% Triton X-100 and noted amounts of test materials in a final volume of 0.5 ml of 40 mM Tris-HCl pH 7.4 plus 0.1% BSA. Nonspecific binding was determined by addition of excess unlabeled bTSH (200 mU/ml, Sigma, St. Louis). After 2 hrs incubation at 25° C., 200 ul of 5 mg/ml bovine gamma globulin and 1 ml 30% polyethylene glycol 6000 (Baker, Phillipsburg, N.J.) in 1M NaCl was added to each tube and the tubes centrifuged at 4000 rpm for 25 minutes. The supernatants were aspirated and pellets counted in a gamma counter. Specific binding averaged 25% of total counts.
FIG. 1 reports 5×10^-12 M labeled bTSH incubated with 10 mg equivalents (wet weight) of 2000×g fraction of thyroid membranes with varying concentrations of unlabeled TSH or synthetic α-subunit peptides. Nonspecific binding was determined in the presence of excess unlabeled TSH.

[4] = system: thyroid stimulating immunoglobulin (TSI) stimulated cAMP in FRTL-5 cells; test: TSI bioassay: inhibition of thyroid stimulating immunoglobulin activity (PEG-precipitated patient immunoglobulin) in FRTL-5 cells; assay type: cell-based, rat; details: for Percent inhibition of TSI activity, mean: mean of patient samples tested
Text: Ten patients (8 women and 2 men) with Graves' disease and high levels of TSI were identified after evaluation by FRTL-5 cell bioassay in the clinical chemistry laboratory. (FRTL-5 bioassay described below employing known TSH receptor recognition of various species hormones) Consecutive samples that had indices greater than 15 and sufficient serum remaining for further evaluation were chosen. Seven of the 10 had serum thyroxine values above the normal range and 9 of 10 had TSH levels below the euthyroid range by sensitive immunoradiometric assay [Boots-Celltech Sucrosep, Berkshire, UK, conducted as described in Klee and Hay, J. Clin. Endocrinol. Metab., 64:461 (1987)]. (FIG. 5). For comparison serum from 13 normal subjects was examined for TSI at the same serum dilution as the patient sera. (FIG. 5).
FRTL-5 cells were maintained in Ham's F-12 medium supplemented with 5% calf serum and a 6-hormone preparation (6H) as described by Ambesi-Impiombato, supra. The cells were removed from flasks enzymatically, plated at 150,000 cells per well in 24 well plates, and grown in 6H medium for 4 days. The medium was then replaced with fresh medium supplemented with insulin only (1H) for 7 days prior to assay. The bioassay was a modification of that described by Kasagi et al., supra. Briefly, immunoglobulins were precipitated from 2 ml of serum with 6 ml 20% polyethylene glycol 6000 (Baker, Phillipsburg, N.J.), centrifuged at 2800×g for 20 minutes, and then reconstituted in 2.4 ml buffer (NaCl-free Hanks balanced salt solution, NaCl-free HBSS), containing 1 mM iso-butyl-methyl-xanthine (IBMX, Sigma, St. Louis) and 1.5% BSA. After washing the cells with HBSS, 150 ul of buffer was added to the wells plus varying concentrations of synthetic α-subunit peptides followed immediately by 150 ul of the crude immunoglobulin extract. The plates were incubated for 2 hours at 37° C., 5% CO2 after which 100 ul of medium was removed and diluted in 900 ul 50 mM sodium acetate buffer, pH 6.2. cAMP content was determined by radioimmunoassay using the procedures described in Wray and Glinos, supra and Steiner et al., supra. Basal cAMP levels were determined in the absence of immunoglobulin extract and synthetic peptides for each plate. Basal and maximum levels were determined in quadruplicate; peptide effects were measured in duplicate at each concentration.
Percent increase in cAMP levels over basal was calculated as below: [formula]
Percent inhibition of TSI activity by the synthetic α-subunit peptides was calculated as follows: [formula]
cAMP levels in the presence of synthetic peptides were compared to maximum levels using student's T test for paired samples. Mean percent inhibition between different peptides were compared with student's T test for independent samples. Correlations were determined by Pearson's R.

In the case of `CC[C@H](C)[C@H](NC(=O)[C@@H]1CCCN1C(=O)[C@H](C)NC(=O)CNC(=O)[C@@H]1CCCN1)C(=O)N[C@@H](CC(C)C)C(=O)N[C@@H](CCC(N)=O)C(=O)N[C@@H](CS)C(=O)N[C@@H](CCSC)C(=O)NCC(=O)N[C@@H](CS)C(=O)N[C@@H](CS)C(=O)N[C@@H](Cc1ccccc1)C(=O)N[C@@H](CO)C(=O)N[C@@H](CCCNC(=N)N)C(N)=O` [α21-35, Pro--Gly--Ala--Pro--Ile--Leu--Gln--Cys--Met--Gly--Cys--Cys--Phe--Ser--Arg] (H-PGAPILQCMGCCFSR-NH2), the “percent inhibition of TSH mediated cAMP generation” value ([1]; peptide 66.7 ug/ml) is reported as 33.88%, the “percent inhibition of TSH mediated cAMP generation” value ([1]; peptide 133.3 ug/ml) is reported as 52.50% and the “behaviour in cell binding assay buffer” value ([2]; FRTL-5 cell binding assay buffer) is reported as “precipitated in the assay buffer”. For the same compound, the “behaviour in soluble membrane assay” value ([2]; soluble membrane assay (FIG. 1)) was “remained in solution”, the “displacement of 125I-bTSH label” value ([3]; at concentrations greater than 1×10^-5 m, FIG. 1) was “more than 80%” and the IC50 [3] was 39.9 ± 0.4 µM. For the same compound, the “inhibition of 125I-bTSH binding, result in words” value ([3]; FIG. 1) was “dose dependent inhibition”.

For `C[C@H](N)C(=O)N[C@@H](CS)C(=O)N[C@@H](Cc1c[nH]cn1)C(=O)N[C@@H](CS)C(=O)N[C@@H](CO)C(=O)N[C@H](C(=O)N[C@@H](CS)C(=O)N[C@@H](Cc1ccc(O)cc1)C(=O)N[C@@H](Cc1ccc(O)cc1)C(=O)N[C@@H](Cc1c[nH]cn1)C(=O)N[C@@H](CCCCN)C(=O)N[C@@H](CO)C(=O)O)[C@@H](C)O` [α81-92, Ala--Cys--His--Cys--Ser--Thr--Cys--Tyr--Tyr--His--Lys--Ser(OH)] (H-ACHCSTCYYHKS-OH), the “percent inhibition of TSH mediated cAMP generation” value ([1]; peptide 66.7 ug/ml) was 18.03%, the “percent inhibition of TSH mediated cAMP generation” value ([1]; peptide 133.3 ug/ml) was 20.83% and the “inhibition of TSH mediated cAMP generation, in words” value ([1]; same concentrations as the active peptides) was “did not significantly inhibit TSH stimulation of cAMP production; also recorded: little or no ability to inhibit TSH mediated cAMP generation”. For the same compound, the “inhibition of cAMP generated by patient immunoglobulin, in words” value ([4]; FIG. 7 and Table 6) was “did not significantly inhibit”, the “Percent inhibition of TSI activity” value ([4]; Pt. sample D, peptide 66.7 ug/ml) was -18.5% and the “Percent inhibition of TSI activity” value ([4]; Pt. sample D, peptide 133 ug/ml) was -7.8%. For the same compound, the “Percent inhibition of TSI activity” value ([4]; Pt. sample E, peptide 66.7 ug/ml) was 29.7%, the “Percent inhibition of TSI activity” value ([4]; Pt. sample E, peptide 133 ug/ml) was 33.6% and the “Percent inhibition of TSI activity” value ([4]; Pt. sample F, peptide 66.7 ug/ml) was 9.6%. The “Percent inhibition of TSI activity” value ([4]; Pt. sample F, peptide 133 ug/ml) was -5.1%, the “Percent inhibition of TSI activity” value ([4]; Pt. sample G, peptide 66.7 ug/ml) was 19.0% and the “Percent inhibition of TSI activity” value ([4]; Pt. sample G, peptide 133 ug/ml) was 14.5%. The “Percent inhibition of TSI activity” value ([4]; Pt. sample H, peptide 66.7 ug/ml) was 0.6%, the “Percent inhibition of TSI activity” value ([4]; Pt. sample H, peptide 133 ug/ml) was -11.4% and the “Percent inhibition of TSI activity” value ([4]; Pt. sample I, peptide 66.7 ug/ml) was -13.3%. The “Percent inhibition of TSI activity” value ([4]; Pt. sample I, peptide 133 ug/ml) was -17.0%, the “Percent inhibition of TSI activity” value ([4]; Pt. sample J, peptide 66.7 ug/ml) was -2.0% and the “Percent inhibition of TSI activity” value ([4]; Pt. sample J, peptide 133 ug/ml) was -7.7%. For the same compound, the “Percent inhibition of TSI activity, mean” value ([4]; peptide 66.7 ug/ml) was 3.6%, the “Percent inhibition of TSI activity, mean” value ([4]; peptide 133 ug/ml) was -0.1±6.2% and -0.1% and the “patient Ig samples with statistically significant inhibition of cAMP” value ([4]; peptide 133 ug/ml) was “none of the 7”. The IC50 [3] was 175 ± 3.8 µM and the “inhibition of 125I-bTSH binding, result in words” value ([3]; FIG. 1) was “dose dependent inhibition; also recorded: considerably less potent”.
